Experimental findings from publication PMC6468747 (Cancers, 2019) are described below.

Read-outs that look alike come from different tables or passages of the source.

The test system of data set [1] is MDA-MB-231 cells. The data set is described as follows: Multiplex Luminex supernatant cytokine analysis. Type of data set: cell-based, human. As to conditions: 72 h, cell supernatants. How it is done: Supernatants from the MDA-MB-231 (TNBC) cells in Fetal Bovine Serum (FBS) containing media were treated with various concentrations of VNLG-12R for 72 h, were collected, and various cytokines and growth factor concentrations (CLCX-1, IL-6, IL8 and TNF-α) were determined by Luminex multiplex assay kit (Millipore, Billerica, MA, USA) according to the manufacturer’s instructions. The expressions of secreted cytokines were read on Luminex 100 reader. The data was then analyzed using the BioPlex Software (BioRad, Hercules, CA, USA). The Luminex multiplex assays were conducted at the University of Maryland School of Medicine Cytokine Core Laboratory (Baltimore, MD, USA).

A short description of data set [2]: Plasma pharmacokinetics after single IV and PO dosing. Type of data set: in vivo, female CD1 mice. As to conditions: female, CD-1, mouse, plasma; for AUC(0-inf): read-out: AUC(0-inf). How it is done:
5. In vivo Pharmacokinetics (PK) Determination: These studies were Performed by Charles River Laboratories (CRL), Discovery Services, 251 Ballardvale Street, Wilmington, MA 01887, USA.
The PK studies were performed according to the guidelines and approval of CRL Institutional Animal Care and Use Committee (IACUC) under IACUC approval no: P04172013.
A total of sixty‐four naïve female CD‐1 mice (including 6 spare animals) were received from Charles River Laboratories, Kingston, NY. Following an acclimation period, the animals were assigned to the study based on acceptable health as determined by a staff veterinarian. For dosing, animals were placed into six groups as detailed in the study design table below. All animals were fasted overnight prior to dosing and food was returned after the 4‐h post‐dose blood collections.
Each animal in Groups 1, 3 and 5 received a single administration of prepared test article by intravenous tail administration at a target dose level of 2 mg/kg and dose volume of 10 mL/kg. Each animal in Groups 2, 4 and 6 received a single administration of prepared test article by oral gavage at a target dose level of 20 mg/kg and at a dose volume of 10 mL/kg. Dosing was performed on August 13, 2015 as detailed in the study protocol and was completed without incident. Dose administration […]
Following dosing and at each sample collection time
Group Mices Test Compound Level Conc. Volume Dose Vehicle Route […]
Interim blood samples were collected in a leapfrog design from each animal by puncture of a submandibular vein and a terminal blood sample was collected from each animal by intracardiac puncture following euthanasia with CO2 as outlined in the sample collection table below.
All blood samples were transferred into tubes containing K2EDTA anticoagulant and placed on wet ice immediately after collection until centrifuged at 2200 × g for 10 min at […] to isolate plasma.
The resulting plasma was transferred to individual polypropylene tubes in a 96‐well plate format and immediately placed on dry ice until storage at nominally […] before transfer to the Test Facility’s bioanalysis group for concentration and HPLC analysis. Individual blood collection times are […]
Table S4. Sample Collections.
Collection Information Whole Blood for Plasma Whole Blood for Plasma
Subgroup A (n = 3) 5 min & 1 h post‐dose 8 h post‐dose
Subgroup B (n = 3) 15 min & 4 h post‐dose 12 h post‐dose
Subgroup C (n = 3) 30 min & 6 h post‐dose 24 h post‐dose
Subgroup D (n = 2) Not applicable 2 h post‐dose
Subgroup A (n = 3) 15 min & 2 h post‐dose 8 h post‐dose
Subgroup B (n = 3) 30 min & 4 h post‐dose 12 h post‐dose
Subgroup C (n = 3) 1 hr & 6 h post‐dose 24 h post‐dose
Collection conditions K2EDTA K2EDTA
Collection route Submandibular Intracardiac puncture
Volume/Time point 100 μL Maximum volume
The plasma samples for Groups 1‐6, Subgroups A‐C were analyzed for test article concentration using a Research Grade LC MS/MS Assay (RGA‐Level 1). The bioanalytical report, including plasma […]
Pharmacokinetic parameters were estimated from the plasma concentration‐time data using standard non‐compartmental methods and utilizing suitable analysis software (Watson 7.2 Bioanalytical LIMS, Thermo Electron Corp). Parameters were estimated using nominal sampling times relative to the start of each dose administration (within an acceptable tolerance limit).
Concentrations below the limit of quantification were excluded from the pharmacokinetic analysis.
The area under the plasma test item concentration versus time curve (AUC) was calculated using the linear‐log‐linear trapezoidal method. When practical, the terminal elimination phase of each concentration versus time curve was identified using at least the final three observed concentration values. The slope of the terminal elimination phase was determined using log linear regression on the unweighted concentration data.
Parameter Description of Parameter […]

The test system of data set [3] is MDA-MB-231 tumor xenografts. Kind of data set: MDA-MB-231 cell-line derived xenograft (CDX), IP dose study. In kind it is in vivo, athymic nude mice. As to conditions: for tumor growth inhibition (TGI): 5 days a week, 4 weeks. The source says: Female athymic nude (Jackson Laboratory, Bar Harbor, Maine, USA) 5–6 weeks of age were housed under complete aseptic conditions, fed autoclaved pellets and sterile water ad libitum. Following a week of acclimatization, approximately 1 × 10^6 MDA-MB-231 cells were inoculated into both flanks for MDA-MB-231 derived xenograft tumors. Tumor-bearing mice (tumor volume around 90–110 mm^3) were randomized into various treatment groups (5 mice in each group; compounds formulated in vehicle) and treated as follows: (i) vehicle control (40% β-cyclodextrin in ddH2O, IP), (ii) VNLG-152R (5 mg/kg, IP, once daily), (iii) VNLG-152 (10 mg/kg, IP, once daily) and (iv) VNLG-152 (20 mg/kg, IP, once daily) 5 days/week for 29 days. Tumors were measured twice weekly with calipers and tumor volume was calculated by the formula: […] (mm^3). Animals were also weighed weekly and monitored for general health status and signs of possible toxicity due to treatments. Mice were sacrificed after the indicated periods of treatment and tumors and organs excised. Tumors were divided and either flash frozen in liquid nitrogen or placed in 10% buffered formalin for western blot analysis, immunohistochemistry (IHC), and hematoxylin and eosin (H & E) staining. It is important to state here that the control was part of a large study with our other retinamides whose data has already been reported.
Western blotting of tumor tissue lysates was performed according to standard protocol. Briefly, 30–50 μg protein per lysate was denatured with 2× sample buffer and resolved on 12 or 16% Tris–glycine gels by sodium dodecyl sulfate–polyacrylamide gel electrophoresis. Separated proteins were transferred onto nitrocellulose membrane by western blotting, and membrane was blocked for 1 h in blocking buffer and then incubated with specific primary antibodies (1:1000 dilution), followed by peroxidase-conjugated appropriate secondary antibody (1:3000 dilution). Finally, proteins were visualized by enhanced chemiluminescence detection and exposure to X-ray film. To confirm equal protein loading, membranes were stripped and re-probed with mouse monoclonal anti-β-actin primary antibody (Sigma).

A word on the half-life: it is the time in which the quantity being followed falls by half. One may read the AUC(0-inf) as total exposure, with the tail of the curve extrapolated. Usually Cmax stands for the maximum level reached in the sampled fluid or tissue. As to `CC1=C(/C=C/C(C)=C/C=C/C(C)=C/C(=O)Nc2ccc(F)cc2)C(C)(C)CCC1n1ccnc1` (racemic) [VNLG-152R, 4-(±)-(1H-imidazol-1-yl)-N-(4-fluorophenyl)-(E)-retinamide], the “secreted IL-6 and IL-8, TNFα and chemokine CXCL1” value in data set [1] is “dose-dependent reduction”. In data set [2] (PO 20 mg/kg vs IV 2 mg/kg, read-out: F (%) oral bioavailability), the bioavailability was 121%. Besides, the half-life is 1.92 h in data set [2] (IV, 2 mg/kg) and 9.25 h in data set [2] (PO, 20 mg/kg). Also, the total exposure AUC(0-inf) in data set [2] (IV, 2 mg/kg) worked out at 1130 ng·h/mL; in data set [2] (PO, 20 mg/kg), 13700 ng·h/mL. Moreover, the Cmax in data set [2] (PO, 20 mg/kg, read-out: Cmax) was 3750 ng/mL. The “tumor growth inhibition (TGI)” value in data set [3] (5 mg/kg/day IP) is 91%; in data set [3] (10 mg/kg/day IP), 97%; in data set [3] (20 mg/kg/day IP), 97%. In addition, the “increase in the Bax/Bcl-2 ratio vs control” value in data set [3] (20 mg/kg IP, tumor lysates) was determined as 470 fold. In data set [3] (5, 10, 20 mg/kg IP), the “changes in body weights” value is given as “no significant changes in body weights were observed”. For the same compound, the “gross organ (liver, lung and kidney) abnormalities” value in data set [3] (5, 10, 20 mg/kg IP, H&E staining) is “no gross organ (liver, lung and kidney) abnormalities”. Besides, the “expression of Mnk1, Mnk2, p-eIF4E, cyclin D1, Bcl-2, Bax and Bad in tumors” value in data set [3] (10 or 20 mg/kg IP, western blot) is “significant dose-dependent suppressions of Mnk1, Mnk2, p-eIF4E, cyclin D1, Bcl-2, and up-regulation of Bax and Bad”.
